# Test results: patent publication US10662228B2 (priority 2014, dated 2020)
# System: potassium ion channel current of the DRG neurons
# Assay type: cell-based, SD rats
# Conditions: 5 mM
smiles,measurement,value
"Nc1ccncc1 [4AP, 4-aminopyridine]",Current inhibition rate,0.338
same,Current recorded after loading,0.9766 nA
